Test results: PubChem BioAssay (NCI)
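1) Cells in 96-well plates. 2) Compound, 48 h, 5 concentrations. 3) Linear interpolation between surrounding doses. 4) Unreached endpoint = highest concentration. TGI is the concentration that stops growth completely.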

How the values were obtained:
Assay in all cases: NCI anticancer screen, dose series, 48 h
HCC-2998 colon = test system: HCC-2998 colon
MOLT-4 leukemia = test system: MOLT-4 leukemia
K-562 leukemia = test system: K-562 leukemia
OVCAR-3 ovarian = test system: OVCAR-3 ovarian
PC-3 prostate = test system: PC-3 prostate
SR leukemia = test system: SR leukemia
A549 NSCLC = test system: A549 NSCLC
HL-60(TB) leukemia = test system: HL-60(TB) leukemia
ACHN renal = test system: ACHN renal
SNB-19 CNS = test system: SNB-19 CNS
T-47D breast = test system: T-47D breast
RPMI-8226 leukemia = test system: RPMI-8226 leukemia
M14 melanoma = test system: M14 melanoma
SK-MEL-2 melanoma = test system: SK-MEL-2 melanoma
A498 renal = test system: A498 renal
HOP-92 NSCLC = test system: HOP-92 NSCLC
SK-OV-3 ovarian = test system: SK-OV-3 ovarian

For `Cc1cccc(C(O)c2ccccn2)c1O` (configuration not stated), the TGI (HCC-2998 colon) was > 100 µM, the TGI (MOLT-4 leukemia) was > 100 µM and the TGI (K-562 leukemia) was > 100 µM. For the same compound, the TGI (OVCAR-3 ovarian) was > 100 µM, the TGI (PC-3 prostate) was > 100 µM and the TGI (SR leukemia) was > 100 µM. For the same compound, the TGI (A549 NSCLC) was > 100 µM, the TGI (HL-60(TB) leukemia) was > 100 µM and the TGI (ACHN renal) was > 100 µM. The TGI (SNB-19 CNS) was > 100 µM, the TGI (T-47D breast) was > 100 µM and the TGI (RPMI-8226 leukemia) was > 100 µM.

In the case of `CN(C)C(=S)SCc1ccccc1`, the TGI (M14 melanoma) was > 100 µM, the TGI (SK-MEL-2 melanoma) was > 100 µM and the TGI (OVCAR-3 ovarian) was > 100 µM. The TGI (A549 NSCLC) was > 100 µM, the TGI (A498 renal) was > 100 µM and the TGI (HOP-92 NSCLC) was > 100 µM. The TGI (SK-OV-3 ovarian) was > 100 µM, the TGI (HL-60(TB) leukemia) was > 100 µM and the TGI (SNB-19 CNS) was > 100 µM. It also gave a TGI (T-47D breast) of 60.6 µM.
